In the supplement of paper PMC10307832:

Columns and labels:
Assay in all cases: relative viability (nuclei count vs DMSO), 5 days (fraction); higher = more cells survive
Veliparib + Dasatinib = compound: C[C@]1(c2nc3c(C(N)=O)cccc3[nH]2)CCCN1 [Veliparib] + Cc1nc(Nc2ncc(C(=O)Nc3c(C)cccc3Cl)s2)cc(N2CCN(CCO)CC2)n1 [Dasatinib] (partner 0.075 µM)
In short: (§1)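 Dosing by pin tool came one day after lung cancer cell lines were seeded in 1536-well plates, using either one drug or a fixed anchor-drug dose plus five library-drug doses (not always all listed) in √10 steps. After 5 days, nuclei were counted on 4× images. Relative viability is treated-well nuclei count divided by vehicle-well nuclei count, and values are medians of duplicate plates.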

[1] = compound: COC1=CC=C(C=C1)CN2C=CC3=C2C=C(C=C3)C(=O)NO + O=C(CCCCCCC(=O)Nc1ccccc1)NO [Vorinostat] (partner 1 µM)
In short: as §1

Veliparib + Decitabine = compound: C[C@]1(c2nc3c(C(N)=O)cccc3[nH]2)CCCN1 [Veliparib] + Nc1ncn([C@H]2C[C@H](O)[C@@H](CO)O2)c(=O)n1 [Decitabine] (partner 2 µM)
In short: as §1

Veliparib + Vorinostat = compound: C[C@]1(c2nc3c(C(N)=O)cccc3[nH]2)CCCN1 [Veliparib] + O=C(CCCCCCC(=O)Nc1ccccc1)NO [Vorinostat] (partner 1 µM)
In short: as §1

Cell Line	relative viability (Veliparib + Dasatinib; first compound 0.02 µM)	relative viability (Veliparib + Dasatinib; first compound 0.06325 µM)	relative viability (Veliparib + Dasatinib; first compound 0.2 µM)	relative viability (Veliparib + Dasatinib; first compound 0.6325 µM)	relative viability (Veliparib + Dasatinib; first compound 2 µM)	relative viability ([1]; first compound 0.08 µM)	relative viability ([1]; first compound 0.253 µM)	relative viability ([1]; first compound 0.8 µM)	relative viability ([1]; first compound 2.53 µM)	relative viability ([1]; first compound 8 µM)	relative viability (Veliparib + Decitabine; first compound 0.02 µM)	relative viability (Veliparib + Decitabine; first compound 0.06325 µM)	relative viability (Veliparib + Decitabine; first compound 0.2 µM)	relative viability (Veliparib + Decitabine; first compound 0.6325 µM)	relative viability (Veliparib + Decitabine; first compound 2 µM)	relative viability (Veliparib + Vorinostat; first compound 0.02 µM)	relative viability (Veliparib + Vorinostat; first compound 0.06325 µM)	relative viability (Veliparib + Vorinostat; first compound 0.2 µM)	relative viability (Veliparib + Vorinostat; first compound 0.6325 µM)	relative viability (Veliparib + Vorinostat; first compound 2 µM)
NCI-H2170	0.549	0.629	0.587	0.562	0.592	0.76	0.958	0.799	0.787	0.713	0.405	0.436	0.378	0.389	0.381	0.795	0.777	0.839	0.786	0.79
NCI-H1355		0.676	0.682	0.611	0.524	0.223	0.695	0.65	0.625	0.589	0.388	0.29	0.371	0.328	0.325	0.44	0.528	0.638	0.626	0.596
NCI-H1755	0.392	0.37	0.401	0.375	0.413	0.694	0.884	0.777	0.876	0.725	0.675	0.709	0.629	0.595	0.707	0.758	0.774	0.725	0.723	0.714
HCC-78	0.438	0.337	0.444	0.483	0.257	0.403	0.484	0.431	0.523	0.411	0.637	0.589	0.603	0.517	0.491	0.5	0.437	0.453	0.44	0.452
NCI-H2405	0.225	0.171	0.225	0.244	0.222	0.782		0.984	1.03	0.896	0.742		0.653	0.663	0.693	0.812		1.01	1.12	1.09
NCI-H2085	0.239	0.213	0.262	0.252	0.246	0.835	0.828	0.828	0.828	0.807	0.519	0.453	0.486	0.48	0.498	0.601	0.778	0.753	0.763	0.756
LXF-289	0.251	0.2	0.251	0.204	0.224		0.815	0.813	0.797	0.668	0.362	0.311	0.342	0.283	0.332	0.809	0.812	0.743	0.655	0.794
NCI-H1650		0.319	0.3	0.271	0.223	0.354	0.557	0.595	0.684	0.532	0.256	0.326	0.433	0.43	0.308	0.57	0.471	0.523	0.627	0.6
EPLC-272H	0.291	0.367	0.323	0.325	0.36		0.619	0.55	0.404	0.3		0.312	0.387	0.331	0.393		0.457	0.424	0.518	0.474
